According to patent US8618151B2, “Inhibitors of HCV NS5A” (Presidio Pharmaceuticals, Inc., priority 2008, dated 2013):

test system: HCV genotype 1b replicon; test: HCV replicon assay (1b_Huh-Luc/Neo-ET cell line, luciferase readout); format: cell-based; settings: Hepatitis C virus, Huh-7, 72 h, read-out: Inhibition of HCV genotype 1b
In short: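 1b_Huh-Luc/Neo-ET Huh 7 cells carrying a bicistronic genotype 1b replicon; compounds added in triplicate the day after plating, 72 h incubation, then Bright-Glo luciferase read-out. Signal expressed as % of control; EC50 from curve fit, repeated several times.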

Q: With `COC(=O)N[C@H](C(=O)N1CCC[C@H]1c1ncc(-c2ccc(-c3ccc4cc(-c5cnc([C@@H]6CCCN6C(=O)[C@H](NC(=O)OC)c6ccccc6)[nH]5)ccc4n3)c(F)c2)[nH]1)C(C)C` [compound 119] as the compound, how does the EC50 read?
A: Its EC50 is less than 1 nM.

Q: Which EC50 does the source give for `COC(=O)N[C@H](C(=O)N1CCC[C@H]1c1ncc(-c2ccc(-c3ccc4cc(-c5cnc([C@@H]6CCCN6C(=O)[C@@H](NC(=O)OC)C6CCOCC6)[nH]5)ccc4n3)c(F)c2)[nH]1)C(C)C` [compound 120] here?
A: The EC50 was less than 1 nM.

Q: How did the EC50 turn out when `COC(=O)N[C@H](C(=O)N1CCC[C@H]1c1ncc(-c2ccc(-c3ccc4cc(-c5cnc([C@@H]6CCCN6C(=O)[C@H](NC(=O)OC6CCOCC6)c6ccccc6)[nH]5)ccc4n3)c(F)c2)[nH]1)C(C)C` [compound 121] was run?
A: The EC50 was less than 1 nM.

Q: How did the EC50 turn out when `COC(=O)N[C@H](C(=O)N1CCC[C@H]1c1ncc(-c2ccc(-c3ccc4cc(-c5cnc([C@@H]6CCCN6C(=O)[C@H](NC(=O)OC(C)(C)C)c6ccccc6)[nH]5)ccc4n3)c(F)c2)[nH]1)C(C)C` [compound 122] was run?
A: Its EC50 is less than 1 nM.

Q: For `COC(=O)N[C@H](C(=O)N1CCC[C@H]1c1ncc(-c2ccc(-c3ccc4cc(-c5cnc([C@@H]6CCCN6C(=O)[C@@H](NC(=O)OC)C6CCOCC6)[nH]5)ccc4n3)cc2F)[nH]1)C(C)C` [compound 123], which EC50 is on record?
A: The EC50 was less than 1 nM.

Q: Which EC50 does the source give for `COC(=O)N[C@H](C(=O)N1CCC[C@H]1c1ncc(-c2ccc(-c3ccc4cc(-c5cnc([C@@H]6CCCN6C(=O)[C@H](NC(=O)OC)c6ccccc6)[nH]5)ccc4n3)cc2F)[nH]1)C(C)C` [compound 124] here?
A: The EC50 was less than 1 nM.

Q: How did the EC50 turn out when `COC(=O)N[C@H](C(=O)N1CCC[C@H]1c1ncc(-c2ccc(-c3ccc4cc(-c5cnc([C@@H]6CCCN6C(=O)[C@H](NC(=O)OC6CCOCC6)c6ccccc6)[nH]5)ccc4n3)cc2F)[nH]1)C(C)C` [compound 125] was run?
A: Its EC50 is less than 1 nM.

Q: With `COC(=O)N[C@H](C(=O)N1CCC[C@H]1c1ncc(-c2ccc3nc(-c4ccc(-c5cnc([C@@H]6CCCN6C(=O)[C@@H](NC(=O)OC)C(C)C)[nH]5)c(F)c4)ccc3c2)[nH]1)C(C)C` [compound 126] as the compound, how does the EC50 read?
A: Its EC50 is less than 1 nM.

Q: `COC(=O)N[C@H](C(=O)N1CCC[C@H]1c1ncc(-c2ccc3cc(-c4ccc(-c5cnc([C@@H]6CCCN6C(=O)[C@H](NC(=O)OC)c6ccccc6)[nH]5)c(F)c4)ncc3c2)[nH]1)C1CCOCC1` [compound 127] was tested. Which EC50 did it give?
A: Its EC50 is less than 1 nM.

Q: Which EC50 does the source give for `COC(=O)N[C@H](C(=O)N1CCC[C@H]1c1ncc(-c2ccc(-c3cc4ccc(-c5cnc([C@@H]6CCCN6C(=O)[C@@H](NC(=O)OC)C6CCOCC6)[nH]5)cc4cn3)cc2F)[nH]1)C(C)C` [compound 128] here?
A: The EC50 was less than 1 nM.

Q: With `COC(=O)N[C@H](C(=O)N1CCC[C@H]1c1ncc(-c2ccc(-c3ccc4cc(-c5cnc([C@@H]6CCCN6C(=O)[C@H](NC(=O)OC)c6ccccc6)[nH]5)ccc4n3)c(F)c2)[nH]1)C1CCOCC1` [compound 129] as the compound, how does the EC50 read?
A: Its EC50 is less than 1 nM.

Q: `COC(=O)N[C@H](C(=O)N1CCC[C@H]1c1ncc(-c2cccc(-c3cccc4cc(-c5cnc([C@@H]6CCCN6C(=O)[C@@H](NC(=O)OC)C(C)C)[nH]5)ccc34)c2)[nH]1)C(C)C` [compound 130] was tested. Which EC50 did it give?
A: The EC50 was less than 1 nM.

Q: For `COC(=O)N[C@H](C(=O)N1CCC[C@H]1c1ncc(-c2ccc3cc(-c4ccc(-c5cnc([C@@H]6COCCN6C(=O)[C@H](NC(=O)OC)c6ccccc6)[nH]5)cc4)ccc3c2)[nH]1)C(C)C` [compound 131], which EC50 is on record?
A: The EC50 was less than 1 nM.

Q: Which EC50 does the source give for `COC(=O)N[C@H](C(=O)N1CCC[C@H]1c1ncc(-c2ccc(-c3ccc4cc(-c5cnc([C@@H]6COCCN6C(=O)[C@H](NC(=O)OC)c6ccccc6)[nH]5)ccc4c3)cc2)[nH]1)C(C)C` [compound 132] here?
A: The EC50 was less than 1 nM.

Q: For `COC(=O)N[C@H](C(=O)N1CCC[C@H]1c1ncc(-c2ccc(-c3ccc4cc(-c5cnc([C@@H]6CCCN6C(=O)[C@@H](NC(=O)OC)C6CCOCC6)[nH]5)ccc4c3)cc2)[nH]1)C1CCOCC1` [compound 133], which EC50 is on record?
A: Its EC50 is less than 1 nM.

Q: With `COC(=O)N[C@H](C(=O)N1CCC[C@H]1c1ncc(-c2ccc3nc(-c4ccc(-c5cnc([C@@H]6CCCN6C(=O)[C@H](NC(=O)OC)c6ccccc6)[nH]5)cc4F)ccc3c2)[nH]1)C1CCOCC1` [compound 134] as the compound, how does the EC50 read?
A: The EC50 was less than 1 nM.

Q: With `COC(=O)N[C@H](C(=O)N1CCC[C@H]1c1ncc(-c2ccc3nc(-c4ccc(-c5cnc([C@@H]6CCCN6C(=O)[C@H](NC(=O)OC(C)(C)C)c6ccccc6)[nH]5)cc4F)ccc3c2)[nH]1)C1CCOCC1` [compound 135] as the compound, how does the EC50 read?
A: Its EC50 is less than 1 nM.

Q: Which EC50 does the source give for `COC(=O)N[C@H](C(=O)N1CCC[C@H]1c1ncc(-c2ccc(-c3ccc4cc(-c5cnc([C@@H]6CCCN6C(=O)[C@H](NC(=O)OC(C)(C)C)c6ccccc6)[nH]5)ccc4n3)c(F)c2)[nH]1)C1CCOCC1` [compound 136] here?
A: The EC50 was less than 1 nM.

Q: `COC(=O)N[C@H](C(=O)N1CCOC[C@H]1c1ncc(-c2ccc(-c3ccc4cc(-c5cnc([C@@H]6CCCN6C(=O)[C@H](NC(=O)OC)c6ccccc6)[nH]5)ccc4c3)cc2)[nH]1)C(C)C` [compound 137] was tested. Which EC50 did it give?
A: The EC50 was less than 1 nM.

Q: Which EC50 does the source give for `COC(=O)N[C@H](C(=O)N1CCOC[C@H]1c1ncc(-c2ccc3cc(-c4ccc(-c5cnc([C@@H]6CCCN6C(=O)[C@H](NC(=O)OC)c6ccccc6)[nH]5)cc4)ccc3c2)[nH]1)C(C)C` [compound 138] here?
A: Its EC50 is less than 1 nM.

Q: How did the EC50 turn out when `COC(=O)N[C@H](C(=O)N1CCC[C@H]1c1ncc(-c2ccc3cc(-c4ccc(-c5cnc([C@@H]6COCCN6C(=O)[C@@H](NC(=O)OC)C(C)C)[nH]5)cc4)ccc3c2)[nH]1)C(C)C` [compound 139] was run?
A: The EC50 was less than 1 nM.

Q: For `COC(=O)N[C@H](C(=O)N1CCC[C@H]1c1ncc(-c2ccc(-c3ccc4cc(-c5cnc([C@@H]6COCCN6C(=O)[C@@H](NC(=O)OC)C(C)C)[nH]5)ccc4c3)cc2)[nH]1)C(C)C` [compound 140], which EC50 is on record?
A: Its EC50 is less than 1 nM.

Q: With `COC(=O)N[C@H](C(=O)N1CCC[C@H]1c1ncc(-c2ccc(-c3ccc4cc(-c5cnc([C@@H]6CCCN6C(=O)[C@@H](NC(=O)OC)C6CCOCC6)[nH]5)ccc4c3)c(F)c2)[nH]1)C1CCOCC1` [compound 141] as the compound, how does the EC50 read?
A: Its EC50 is less than 1 nM.

Q: How did the EC50 turn out when `CC[C@@H](C)[C@H](NC(=O)OC)C(=O)N1CCC[C@H]1c1ncc(-c2ccc(-c3ccc4cc(-c5cnc([C@@H]6CCCN6C(=O)[C@@H](NC(=O)OC)[C@H](C)CC)[nH]5)ccc4c3)cc2)[nH]1` [compound 142] was run?
A: The EC50 was less than 1 nM.

Q: With `COC(=O)N[C@H](C(=O)N1CCC[C@H]1c1ncc(-c2ccc(-c3ccc4cc(-c5cnc([C@@H]6CCCN6C(=O)[C@@H](NC(=O)OC)C6CC6)[nH]5)ccc4c3)cc2)[nH]1)C1CC1` [compound 143] as the compound, how does the EC50 read?
A: The EC50 was less than 1 nM.

Q: `CNC(=O)N[C@@H](C(=O)N1CCC[C@H]1c1ncc(-c2ccc(-c3cc4ccc(-c5cnc([C@@H]6CCCN6C(=O)[C@@H](NC(=O)OC)C6CCOCC6)[nH]5)cc4cn3)cc2)[nH]1)c1ccccc1` [compound 144] was tested. Which EC50 did it give?
A: Its EC50 is less than 1 nM.

Q: Which EC50 does the source give for `COC(=O)N[C@H](C(=O)N1CCC[C@H]1c1ncc(-c2ccc3cc(-c4ccc(-c5cnc([C@@H]6CCCN6C(=O)[C@H](NC(=O)NC6CC6)c6ccccc6)[nH]5)cc4)ncc3c2)[nH]1)C1CCOCC1` [compound 145] here?
A: The EC50 was less than 1 nM.

Q: `COC(=O)N[C@H](C(=O)N1CCC[C@H]1c1ncc(-c2ccc3nc(-c4ccc(-c5cnc([C@@H]6C[C@@H](O)CN6C(=O)[C@@H](NC(=O)OC)C(C)C)[nH]5)cc4)ccc3c2)[nH]1)C(C)C` [compound 146] was tested. Which EC50 did it give?
A: The EC50 was less than 1 nM.

Q: With `COC(=O)N[C@H](C(=O)N1C[C@H](O)C[C@H]1c1ncc(-c2ccc(-c3ccc4cc(-c5cnc([C@@H]6CCCN6C(=O)[C@@H](NC(=O)OC)C6CCOCC6)[nH]5)ccc4n3)cc2)[nH]1)C(C)C` [compound 147] as the compound, how does the EC50 read?
A: The EC50 was less than 1 nM.

Q: `COC(=O)N[C@H](C(=O)N1C[C@H](O)C[C@H]1c1ncc(-c2ccc(-c3ccc4cc(-c5cnc([C@@H]6CCCN6C(=O)[C@H](NC(=O)OC)c6ccccc6)[nH]5)ccc4n3)cc2)[nH]1)C(C)C` [compound 148] was tested. Which EC50 did it give?
A: Its EC50 is less than 1 nM.

Q: With `COC(=O)N[C@H](C(=O)N1C[C@H](O)C[C@H]1c1ncc(-c2ccc(-c3ccc4cc(-c5cnc([C@@H]6CCCN6C(=O)[C@H](NC(=O)OC6CCOCC6)c6ccccc6)[nH]5)ccc4n3)cc2)[nH]1)C(C)C` [compound 149] as the compound, how does the EC50 read?
A: Its EC50 is less than 1 nM.

Q: With `COC(=O)N[C@H](C(=O)N1CCC[C@H]1c1ncc(-c2ccc(-c3cc4ccc(-c5cnc([C@@H]6CCCN6C(=O)[C@@H](NC(=O)OC)C(C)C)[nH]5)cc4cn3)c(F)c2)[nH]1)C(C)C` [compound 150] as the compound, how does the EC50 read?
A: The EC50 was less than 1 nM.

Q: How did the EC50 turn out when `COC(=O)N[C@H](C(=O)N1CCC[C@H]1c1ncc(-c2ccc3cc(-c4ccc(-c5cnc([C@@H]6CCCN6C(=O)[C@@H](NC(=O)OC)C6CCOCC6)[nH]5)cc4F)ncc3c2)[nH]1)C(C)C` [compound 151] was run?
A: Its EC50 is less than 1 nM.

Q: How did the EC50 turn out when `COC(=O)N[C@H](C(=O)N1CCC[C@H]1c1ncc(-c2ccc3cc(-c4ccc(-c5cnc([C@@H]6CCCN6C(=O)[C@H](NC(=O)OC)c6ccccc6)[nH]5)cc4F)ncc3c2)[nH]1)C(C)C` [compound 152] was run?
A: Its EC50 is less than 1 nM.

Q: `COC(=O)N[C@H](C(=O)N1CCC[C@H]1c1ncc(-c2ccc3cc(-c4ccc(-c5cnc([C@@H]6CCCN6C(=O)[C@H](NC(=O)OC6CCOCC6)c6ccccc6)[nH]5)cc4F)ncc3c2)[nH]1)C(C)C` [compound 153] was tested. Which EC50 did it give?
A: Its EC50 is less than 1 nM.

Q: For `COC(=O)N[C@H](C(=O)N1CCC[C@H]1c1ncc(-c2ccc3cc(-c4ccc(-c5cnc([C@@H]6CCCN6C(=O)[C@H](NC(=O)OC6CCOCC6)c6ccccc6)[nH]5)c(F)c4)ncc3c2)[nH]1)C1CCOCC1` [compound 154], which EC50 is on record?
A: Its EC50 is less than 1 nM.

Q: How did the EC50 turn out when `COC(=O)N[C@H](C(=O)N1CCC[C@H]1c1ncc(-c2ccc3cc(-c4ccc(-c5cnc([C@@H]6CCCN6C(=O)[C@H](NC(=O)OC)c6ccccc6)[nH]5)c(F)c4)ncc3c2)[nH]1)C(C)C` [compound 155] was run?
A: The EC50 was less than 1 nM.

Q: Which EC50 does the source give for `COC(=O)N[C@H](C(=O)N1CCC[C@H]1c1ncc(-c2ccc(-c3cc4ccc(-c5cnc([C@@H]6CCCN6C(=O)[C@H](NC(=O)OC6CCOCC6)c6ccccc6)[nH]5)cc4cn3)cc2F)[nH]1)C(C)C` [compound 156] here?
A: The EC50 was less than 1 nM.

Q: With `COC(=O)N[C@H](C(=O)N1CCC[C@H]1c1ncc(-c2ccc3cc(-c4ccc5nc([C@@H]6CCCN6C(=O)[C@@H](NC(=O)OC)C(C)C)[nH]c5c4)ccc3c2)[nH]1)C(C)C` [compound 174] as the compound, how does the EC50 read?
A: Its EC50 is less than 1 nM.

Q: Which EC50 does the source give for `COC(=O)N[C@H](C(=O)N1CCC[C@H]1c1ncc(-c2ccc3cc(-c4ccc5nc([C@@H]6CCCN6C(=O)[C@@H](NC(=O)OC)[C@@H](C)O)[nH]c5c4)ccc3c2)[nH]1)[C@@H](C)O` [compound 175] here?
A: The EC50 was less than 1 nM.
